Patent US4933332A, “11-desoxy-17-α-hydroxycorticosterone derivatives” (priority 1988, dated 1990)
Where a name gives a salt, the structure may show the parent alone.

Columns and labels:
[1] = test system: Alveolar mammary cancer RMK-1; experiment: Antitumor effect on grafted alveolar mammary cancer RMK-1; format: in vivo, mice and rats
Hepatoma G-61 = experiment: Antitumor effect on grafted hepatoma G-61; format: in vivo, mice and rats
P-388 = experiment: Antitumor effect on grafted hemoblastoses (P-388), extension of lifespan; format: in vivo, mice and rats
Hepatoma G-22c = experiment: Antitumor effect on grafted hepatoma G-22c; format: in vivo, mice and rats; conditions: G-22c; days 2-6; effective dose range per compound, 24 h × 5
[2] = test system: adrenalectomized rat youngsters; experiment: Lifespan of adrenalectomized rat youngsters (biological test for the glucocorticoidal activity); format: in vivo; conditions: 25-days adrenalectomized rats
MOPG-406 = experiment: Antitumor effect on grafted hemoblastoses (MOPC-406), extension of lifespan; format: in vivo, mice and rats
[3] = test system: Large intestine adenocarcinoma AKATOL; experiment: Antitumor effect on grafted large intestine adenocarcinoma AKATOL; format: in vivo, mice and rats
Lewis lung carcinoma LL = experiment: Antitumor effect on grafted Lewis lung carcinoma LL; format: in vivo, mice and rats
Ca-755 = experiment: Antitumor effect on grafted solid tumor Ca-755; format: in vivo, mice and rats
Hepatoma G-60 = experiment: Antitumor effect on grafted hepatoma G-60; format: in vivo, mice and rats
L 1210 = experiment: Antitumor effect on grafted hemoblastoses (L 1210), extension of lifespan; format: in vivo, mice and rats
S-37 = experiment: Antitumor effect on grafted solid tumor S-37; format: in vivo, mice and rats
[4] = test system: Viral leukosis Mazurenko LMC-1; experiment: Antitumor effect on grafted hemoblastoses (LMC-1), extension of lifespan; format: in vivo, mice and rats; conditions: LMC-1; days 2-6 after grafting; effective dose range per compound, 24 h × 5
cell receptors = conditions: effects are reversible; cited from earlier work
mice fibroblasts L-929 = conditions: effects are reversible; cited from earlier work
S-180 = test system: S-180; parameters: species or system mice and rats; conditions: in vivo
La = test system: La; parameters: species or system mice and rats; conditions: in vivo
mice = conditions: mouse, in vivo
in vivo = conditions: mouse
[5] = cited from earlier work

SMILES: C[C@]12CCC(=O)C=C1CC[C@@H]1[C@@H]2CC[C@@]2(C)[C@H]1CC[C@]2(O)C(=O)CO [11-Desoxy-17α-hydroxycorticosterone, 11-desoxy-17α-hydroxycorticosterone, reference compound]
- Maximum tumor growth inhibition ([1]; RMK-1, days 3-7, effective dose range per compound, 24 h × 5, "+" = stimulation of tumor growth): +4%
- Maximum tumor growth inhibition (Hepatoma G-61; G-61, days 7-11, effective dose range per compound, 24 h × 5): 37%
- Extension of the lifespan of the animals (ELA) (P-388; P-388, days 2-6 after grafting, effective dose range per compound, 24 h × 5): -7%
- Maximum tumor growth inhibition (Hepatoma G-22c): 3%
- extension of lifespan of adrenalectomized rat youngsters [2]: 115%
- Extension of the lifespan of the animals (ELA) (MOPG-406; MOPG-406, days 2-6 after grafting, effective dose range per compound, 24 h × 5): 0%
- Maximum tumor growth inhibition ([3]; AKATOL, days 2-6, effective dose range per compound, 24 h × 5, "+" = stimulation of tumor growth): +41%
- Maximum tumor growth inhibition (Lewis lung carcinoma LL; LL, days 2-6, effective dose range per compound, 24 h × 5): 28%
- Maximum tumor growth inhibition (Ca-755; Ca-755, days 2-6, effective dose range per compound, 24 h × 5, "+" = stimulation of tumor growth): +105%
- Maximum tumor growth inhibition (Hepatoma G-60; G-60, days 6-10, effective dose range per compound, 24 h × 5): 38%
- Extension of the lifespan of the animals (ELA) (L 1210; L 1210, days 2-6 after grafting, effective dose range per compound, 24 h × 5): 6%
- Maximum tumor growth inhibition (S-37; S-37, days 2-6, effective dose range per compound, 24 h × 5): 29%
- Extension of the lifespan of the animals (ELA) [4]: 17%

SMILES: CC1(C)O[C@@H]2C[C@H]3[C@@H]4CCC5=CC(=O)C=C[C@]5(C)[C@@]4(F)[C@@H](O)C[C@]3(C)[C@]2(C(=O)COC(=O)N(CCCl)CCCl)O1 [9αF,11β,16α, 17α,26-tetraoxypregna-1,4-diene-3,20-dione-21-[bis-(2-chloroethyl)carbamate], 16,17-acetonide]
- reaction with cell receptors (cell receptors): react with cell receptors
- growth of cultures of mice fibroblasts L-929 (mice fibroblasts L-929): inhibit growth of cultures of mice fibroblasts L-929

SMILES: C[C@]12CC[C@@H]3c4ccc(OC(=O)N(CCCl)CCCl)cc4CC[C@H]3[C@@H]1CC[C@@H]2OP(=O)(O)O [Estracyte, estra-1,3,5-(10)treine-3,17β-diol-3N-[bis-(2-chloroethyl)carbamate-17-sodium phosphate, reference compound]
- Maximum tumor growth inhibition (S-180): +23%
- Maximum tumor growth inhibition (Lewis lung carcinoma LL; in vivo): 29%
- Maximum tumor growth inhibition (Ca-755; in vivo): +6%
- Maximum tumor growth inhibition (S-37; in vivo): 85%

SMILES: C[C@]12CCC(=O)C=C1CC[C@@H]1[C@@H]2CC[C@@]2(C)[C@H]1CC[C@]2(O)C(=O)COC(=O)CCCc1ccc(N(CCCl)CCCl)cc1 [11-desoxy-17α-hydroxy-21-[p-di(2-chloroethyl)aminophenylbutyrate] corticosterone]
- Extension of the lifespan of the animals (ELA) (P-388; in vivo): 82%
- Extension of the lifespan of the animals (ELA) (MOPG-406; in vivo): 70%
- Extension of the lifespan of the animals (ELA) (La): 18%
- toxicity (relative) (mice): even lower toxicity
- Extension of the lifespan of the animals (ELA) (L 1210; in vivo): 20%
- MTD (in vivo): 350 mg/kg

SMILES: C[C@]12C=CC(=O)C=C1CC[C@@H]1[C@@H]2[C@@H](O)C[C@@]2(C)[C@H]1CC[C@]2(O)C(=O)CO [Prednisolone, pregnadiene-1,4-triol-11β,17α,21-dione-3,20, reference compound]
- Maximum tumor growth inhibition (Hepatoma G-61; in vivo): 44%
- Maximum tumor growth inhibition ([3]; in vivo): 67%
- Maximum tumor growth inhibition (Lewis lung carcinoma LL; in vivo): 30%
- Maximum tumor growth inhibition (Ca-755; in vivo): 70%
- Maximum tumor growth inhibition (S-37; in vivo): 44%

SMILES: C[C@]12CCC(=O)C=C1CC[C@@H]1[C@@H]2[C@@H](O)C[C@@]2(C)[C@H]1CC[C@]2(O)C(=O)COC(=O)N(CCCl)CCCl [11β,17α,21-trihydroxy-pregnene-4-3,20-dione-21-[bis(2-chloroethyl)carbamate]]
- reaction with cell receptors (cell receptors): react with cell receptors
- growth of cultures of mice fibroblasts L-929 (mice fibroblasts L-929): inhibit growth of cultures of mice fibroblasts L-929

SMILES: NC(Cc1ccc(N(CCCl)CCCl)cc1)C(=O)O (stereo not drawn) [Sarcolysine, β-[p-di(2-chloroethyl)aminophenyl]-α-alanine hydrochloride, reference compound]
- Maximum tumor growth inhibition (S-180): 76%
- Maximum tumor growth inhibition ([1]; in vivo): +86%
- Maximum tumor growth inhibition (Hepatoma G-61; in vivo): 87%
- Maximum tumor growth inhibition ([3]; in vivo): 56%
- Maximum tumor growth inhibition (Lewis lung carcinoma LL; in vivo): 58%
- Maximum tumor growth inhibition (Ca-755; in vivo): 83%
- Maximum tumor growth inhibition (Hepatoma G-60; in vivo): 90%
- Maximum tumor growth inhibition (S-37; in vivo): 95%

SMILES: O=C(O)CCCc1ccc(N(CCCl)CCCl)cc1 [Chlorambucyl, p-di-(2-chloroethyl)aminophenylbutyric acid, reference compound]
- MTD (in vivo): 25 mg/kg

SMILES: C[C@]12C=CC(=O)C=C1CC[C@@H]1[C@@H]2[C@@H](O)C[C@@]2(C)[C@H]1CC[C@]2(O)C(=O)COC(=O)CCCc1ccc(N(CCCl)CCCl)cc1 [Prednimustine, pregna-1,4-diene-3,20-dione, 11β17,21-trihydroxy-21-[p-di(2-chloroethyl)aminophenylbutyrate]]
- hematotoxicity ([5]; in vivo): Hematotoxicity usually limiting administration
- side effects ([5]; oncological clinic): associated mainly with hematotoxicity
